From patent US20240109900A1, “AZABICYCLIC SHP2 INHIBITORS” (IRBM S.P.A., priority 2021, published 2024)
Like-named read-outs stand apart in the source and are kept apart here.

Columns and labels:
[1] = biological target: SHP-2 enzyme (Met1-Leu525) (Homo sapiens (Human), UniProt Q06124); assay: SHP2 inhibition enzymatic assay; assay type: biochemical; settings: 75 μM DiFMUP substrate
How it was run: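 SHP-2 (Met1-Leu525), 0.5 nM, activated with 500 nM IRS1 bis-phosphopeptide, preincubated 30 min with compounds in HEPES pH 7.2 buffer with 5 mM DTT. 75 μM DiFMUP added for 30 min at room temperature, stopped with bpV; fluorescence read. IC50 from four-parameter logistic fit of % inhibition.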

[2] = test system: ERK phosphorylation in KYSE-520 cells; assay: Phospho-ERK cellular assay; assay type: cell-based; settings: read-out: PERK IC50
How it was run: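 TR-FRET read-out of ERK1/2 Thr202/Tyr204 phosphorylation was taken after overnight antibody incubation at room temperature. Before that, KYSE-520 cells were treated 2 h at 37 °C with compound dilutions and lysed 30 min. Percent inhibition relative to vehicle and cell-free wells was fitted four-parametrically to give IC50.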

[3] = 0.5 nM SHP-2 activated by 500 nM IRS1 peptide, read-out: SHP2wt-IC50
[4] = Homo sapiens, KYSE-520, 2 h, KYSE-520 cells, 2 h at 37° C., phospho-ERK1/2 (Thr202/Tyr204) TR-FRET
[5] = KYSE-520 cells, 2 h at 37° C., phospho-ERK1/2 (Thr202/Tyr204) TR-FRET
[6] = SHP2wt-IC50, 0.5 nM SHP-2 activated by 500 nM IRS1 peptide

Sequence of SHP-2 enzyme (Met1-Leu525) (Q06124 1-525): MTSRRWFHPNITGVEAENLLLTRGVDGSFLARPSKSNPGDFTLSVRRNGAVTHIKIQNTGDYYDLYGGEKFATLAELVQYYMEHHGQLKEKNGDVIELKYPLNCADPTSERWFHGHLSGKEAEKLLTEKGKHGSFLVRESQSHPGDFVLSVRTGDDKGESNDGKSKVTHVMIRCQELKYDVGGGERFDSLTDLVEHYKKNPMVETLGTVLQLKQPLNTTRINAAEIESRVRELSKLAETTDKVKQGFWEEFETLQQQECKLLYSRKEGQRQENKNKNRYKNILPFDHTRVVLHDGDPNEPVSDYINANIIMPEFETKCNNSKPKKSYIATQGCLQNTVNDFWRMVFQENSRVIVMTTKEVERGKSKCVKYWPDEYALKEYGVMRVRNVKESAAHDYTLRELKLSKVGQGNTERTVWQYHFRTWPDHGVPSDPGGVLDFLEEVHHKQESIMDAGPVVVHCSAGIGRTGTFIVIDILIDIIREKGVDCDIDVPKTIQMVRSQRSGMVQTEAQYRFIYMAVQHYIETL

Row | Structure (SMILES) | IC50 [1, 3] [µM] | IC50 [2, 4] [µM] | IC50 [2, 5] [µM] | IC50 [1, 6] [µM] | IC50 ([2]; Homo sapiens, KYSE-520, 2 h) [µM]
1 | Cc1c(-c2ccc3nc(N4CC[C@@H]5[C@H](C4)[C@@]5(CN)c4ccccc4F)cnc3n2)ccc2nn(C)cc12 [Example 425, ((1S,6R,7R)-3-(6-(2,4-dimethyl-2H-indazol-5-yl)pyrido[2,3-b]pyrazin-2-yl)-7-(2-fluorophenyl)-3-azabicyclo[4.1.0]heptan-7-yl)methanamine] | < 0.5 | < 1 | – | – | –
2 | Cc1nccc(Sc2ccc3nc(N4CC[C@@H]5[C@H](C4)[C@@]5(CN)c4cc(F)ccc4F)cnc3n2)c1F [Example 426, ((1S,6R,7R)-7-(2,5-difluorophenyl)-3-(6-((3-fluoro-2-methylpyridin-4-yl)thio)pyrido[2,3-b]pyrazin-2-yl)-3-azabicyclo[4.1.0]heptan-7-yl)methanamine] | < 0.5 | < 1 | – | – | –
3 | Cn1cc2c(Cl)c(Sc3cnc(N4CC[C@@H]5[C@H](C4)[C@@]5(CN)c4ccccc4F)cn3)ccc2n1 [Example 427, ((1S,6R,7R)-3-(5-((4-chloro-2-methyl-2H-indazol-5-yl)thio)pyrazin-2-yl)-7-(2-fluorophenyl)-3-azabicyclo[4.1.0]heptan-7-yl)methanamine] | < 0.5 | < 1 | – | – | –
4 | CN(C)C(=O)Cn1cc2c(Cl)c(-c3n[nH]c4nc(N5CC[C@@H]6[C@H](C5)[C@@]6(CN)c5ccccc5F)cnc34)ccc2n1 [Example 428] | < 0.5 | – | < 1 | – | –
5 | NC[C@]1(c2cccc(F)c2F)[C@@H]2CCN(c3cnc(Sc4ccnc(N)c4Cl)c(N)n3)C[C@@H]21 [Example 429, 3-((2-amino-3-chloropyridin-4-yl)thio)-6-((1S,6R,7R)-7-(aminomethyl)-7-(2,3-difluorophenyl)-3-azabicyclo[4.1.0]heptan-3-yl)pyrazin-2-amine] | < 0.5 | < 1 | – | – | –
6 | NC[C@]1(c2cc(F)ccc2F)[C@@H]2CCN(c3cnc(Sc4ccnc(C5CC5)c4Cl)c(N)n3)C[C@@H]21 [Example 430, 6-((1S,6R,7R)-7-(aminomethyl)-7-(2,5-difluorophenyl)-3-azabicyclo[4.1.0]heptan-3-yl)-3-((3-chloro-2-cyclopropylpyridin-4-yl)thio)pyrazin-2-amine] | < 0.5 | < 1 | – | – | –
7 | Cc1nccc(Sc2ncc(N3CC[C@@H]4[C@H](C3)[C@@]4(CN)c3cc(F)ccc3F)nc2N)c1F [Example 431, 6-((1S,6R,7R)-7-(aminomethyl)-7-(2,5-difluorophenyl)-3-azabicyclo[4.1.0]heptan-3-yl)-3-((3-fluoro-2-methylpyridin-4-yl)thio)pyrazin-2-amine] | < 0.5 | < 1 | – | – | –
8 | CN(C)C(=O)Cn1ncc2c(Cl)c(-c3n[nH]c4nc(N5CC[C@@H]6[C@H](C5)[C@@]6(CN)c5ccccc5F)cnc34)ccc21 [Example 432] | < 0.5 | – | < 1 | – | –
9 | Cc1csc([C@@]2(CN)[C@@H]3CN(c4cc(=O)n(-c5cccc(Cl)c5Cl)c(C)n4)C[C@@H]32)n1 [Example 433, 6-((1R,5S,6r)-6-(aminomethyl)-6-(4-methylthiazol-2-yl)-3-azabicyclo[3.1.0]hexan-3-yl)-3-(2,3-dichlorophenyl)-2-methylpyrimidin-4(3H)-one] | < 0.5 | < 1 | – | – | –
10 | Cc1csc([C@@]2(CN)[C@@H]3CN(c4cnc(Sc5ccnc(N)c5Cl)c(N)n4)C[C@@H]32)n1 [Example 434, 3-((2-amino-3-chloropyridin-4-yl)thio)-6-((1R,5S,6r)-6-(aminomethyl)-6-(4-methylthiazol-2-yl)-3-azabicyclo[3.1.0]hexan-3-yl)pyrazin-2-amine] | < 0.5 | – | < 1 | – | –
11 | COc1cc(-c2ccc3nc(N4CC[C@@H]5[C@H](C4)[C@@]5(CN)c4ccccc4F)cnc3n2)cc2cccnc12 [Example 435, ((1S,6R,7R)-7-(2-fluorophenyl)-3-(6-(8-methoxyquinolin-6-yl)pyrido[2,3-b]pyrazin-2-yl)-3-azabicyclo[4.1.0]heptan-7-yl)methanamine] | < 0.5 | < 1 | – | – | –
12 | Cn1cnc2ccc(-c3ccc4nc(N5CC[C@@H]6[C@H](C5)[C@@]6(CN)c5ccccc5F)cnc4n3)cc21 [Example 436, ((1S,6R,7R)-7-(2-fluorophenyl)-3-(6-(1-methyl-1H-benzo[d]imidazol-6-yl)pyrido[2,3-b]pyrazin-2-yl)-3-azabicyclo[4.1.0]heptan-7-yl)methanamine] | < 0.5 | < 1 | – | – | –
13 | Cc1csc([C@@]2(CN)[C@@H]3CN(c4cnc5c(-c6cccc(Cl)c6Cl)n[nH]c5n4)CC[C@@H]32)n1 [Example 437, ((1R,6S,7R)-3-(3-(2,3-dichlorophenyl)-1H-pyrazolo[3,4-b]pyrazin-6-yl)-7-(4-methylthiazol-2-yl)-3-azabicyclo[4.1.0]heptan-7-yl)methanamine] | < 0.5 | 1 to 5 | – | – | –
14 | NC[C@]1(c2ccccc2F)[C@@H]2CCN(c3cnc4c(-c5ccn6nccc6c5Cl)n[nH]c4n3)C[C@@H]21 [Example 438, ((1S,6R,7R)-3-(3-(4-chloropyrazolo[1,5-a]pyridin-5-yl)-1H-pyrazolo[3,4-b]pyrazin-6-yl)-7-(2-fluorophenyl)-3-azabicyclo[4.1.0]heptan-7-yl)methanamine] | < 0.5 | < 1 | – | – | –
15 | Cc1csc([C@@]2(CN)[C@@H]3CCN(c4cnc5c(-c6ccn7nccc7c6Cl)n[nH]c5n4)C[C@@H]32)n1 [Example 439, ((1S,6R,7S)-3-(3-(4-chloropyrazolo[1,5-a]pyridin-5-yl)-1H-pyrazolo[3,4-b]pyrazin-6-yl)-7-(4-methylthiazol-2-yl)-3-azabicyclo[4.1.0]heptan-7-yl)methanamine] | < 0.5 | < 1 | – | – | –
16 | Cc1csc([C@@]2(CN)[C@@H]3CCN(c4cnc5c(-c6ccn7nc(C)cc7c6Cl)n[nH]c5n4)C[C@@H]32)n1 [Example 440, ((1S,6R,7S)-3-(3-(4-chloro-2-methylpyrazolo[1,5-a]pyridin-5-yl)-1H-pyrazolo[3,4-b]pyrazin-6-yl)-7-(4-methylthiazol-2-yl)-3-azabicyclo[4.1.0]heptan-7-yl)methanamine] | < 0.5 | < 1 | – | – | –
17 | Cc1csc(C2(CN)C3CCN(c4cnc5c(-c6ccc(Cl)c7ncccc67)n[nH]c5n4)CC32)n1 (stereo not shown) [Example 442, (3-(3-(8-chloroquinolin-5-yl)-1H-pyrazolo[3,4-b]pyrazin-6-yl)-7-(4-methylthiazol-2-yl)-3-azabicyclo[4.1.0]heptan-7-yl)methanamine] | < 0.5 | < 1 | – | – | –
18 | Cc1csc(C2(CN)C3CCN(c4cnc5c(-c6ccc(S(=O)(=O)F)c7ccccc67)n[nH]c5n4)CC32)n1 (stereo not shown) [Example 443, 4-(6-(7-(aminomethyl)-7-(4-methylthiazol-2-yl)-3-azabicyclo[4.1.0]heptan-3-yl)-1H-pyrazolo[3,4-b]pyrazin-3-yl)naphthalene-1-sulfonyl fluoride] | – | – | – | 0.5 to 3 | < 1
19 | Cc1csc([C@@]2(CN)[C@@H]3CCN(c4cnc5c(-c6ccc7nc(C)sc7c6Cl)n[nH]c5n4)C[C@@H]32)n1 [Example 444, ((1S,6R,7S)-3-(3-(7-chloro-2-methylbenzo[d]thiazol-6-yl)-1H-pyrazolo[3,4-b]pyrazin-6-yl)-7-(4-methylthiazol-2-yl)-3-azabicyclo[4.1.0]heptan-7-yl)methanamine] | < 0.5 | < 1 | – | – | –
20 | Cc1csc([C@@]2(CN)[C@@H]3CCN(c4cnc5c(-c6ccc7nn(C)c(Cl)c7c6Cl)n[nH]c5n4)C[C@@H]32)n1 [Example 445, ((1S,6R,7S)-3-(3-(3,4-dichloro-2-methyl-2H-indazol-5-yl)-1H-pyrazolo[3,4-b]pyrazin-6-yl)-7-(4-methylthiazol-2-yl)-3-azabicyclo[4.1.0]heptan-7-yl)methanamine] | < 0.5 | < 1 | – | – | –
21 | NCC1(c2nc(Cl)cs2)C2CCN(c3cnc4c(-c5ccc(F)c6ncccc56)n[nH]c4n3)CC21 (stereo not shown) [Example 446, (7-(4-chlorothiazol-2-yl)-3-(3-(8-fluoroquinolin-5-yl)-1H-pyrazolo[3,4-b]pyrazin-6-yl)-3-azabicyclo[4.1.0]heptan-7-yl)methanamine] | < 0.5 | < 1 | – | – | –
22 | Cc1csc([C@@]2(CN)[C@@H]3CN(c4cnc(Sc5ccn6cc(C(=O)N(C)C)nc6c5Cl)cn4)C[C@@H]32)n1 [Example 447, 7-((5-((1R,5S,6r)-6-(aminomethyl)-6-(4-methylthiazol-2-yl)-3-azabicyclo[3.1.0]hexan-3-yl)pyrazin-2-yl)thio)-8-chloro-N,N-dimethylimidazo[1,2-a]pyridine-2-carboxamide] | < 0.5 | < 1 | – | – | –
23 | Cc1csc([C@@]2(CN)[C@@H]3CCN(c4cnc5c(-c6ccc(OS(=O)(=O)F)c7ncccc67)n[nH]c5n4)C[C@@H]32)n1 [Example 448, 5-(6-((1S,6R,7S)-7-(aminomethyl)-7-(4-methylthiazol-2-yl)-3-azabicyclo[4.1.0]heptan-3-yl)-1H-pyrazolo[3,4-b]pyrazin-3-yl)quinolin-8-yl sulfurofluoridate] | – | – | – | < 0.5 | < 1
